Tests used:
[1] = target: Stat3 (Mus musculus, UniProt P42227); experiment: Stat3 DNA-binding activity in vitro, electrophoretic mobility shift assay (EMSA) on nuclear extracts; format: biochemical; conditions: nuclear extracts containing activated Stat3 pre-incubated with compound 30 min at room temperature, radiolabeled hSIE probe
Method: FIGS. 3A-3D. show the effect of aryl sulfonamido compounds described herein on Stat3 DNA-binding activity in vitro. […] Positions of Stat3:DNA complexes in gel are labeled; control lanes (0) represent nuclear extracts pre-treated with 10% DMSO.
Nuclear extract preparation, gel shift assays, and densitometric analysis. […] Except where indicated, nuclear extracts were pre-incubated with compound for 30 min at room temperature prior to incubation with the radiolabeled probe for 30 min at 30° C. before subjecting to EMSA analysis. Where appropriate, bands corresponding to Stat3:DNA complexes were scanned and quantified for each concentration of compound using ImageJ and plotted as percent of control (DMSO) against concentration of compound, from which the IC50 values were derived.
The inhibitory activities of the representative analogs against in vitro Stat3 DNA-binding activity, as measured by electrophoretic mobility shift assay (EMSA) for representative compounds from the Examples above are shown in FIGS. 3A-3D and summarized in Table 1.
Table 1. Stat3 DNA-binding activity in vitro of aryl sulfonamido compounds described herein, including their corresponding referenced names (e.g., H203), as measured by electrophoretic mobility shift assay (EMSA). The inhibition metrics are presented in units of micromolar (μM).

[2] = test system: Stat3 DNA-binding activity in MDA-MB-231 cells; experiment: EMSA of nuclear extracts from treated human breast cancer cells (intracellular Stat3 signaling); format: cell-based; conditions: 0.5, 1, 2, 3, 4, 5 and 10 μM, 0-72 h
Method: Nuclear extract preparation, gel shift assays, and densitometric analysis. […] The ^32P-labeled oligonucleotide probes used were hSIE (high affinity sis-inducible element from the c-fos gene, m67 variant, 5′-[…]) (SEQ ID NO: 1) that binds Stat1 and Stat3 and MGFe (mammary gland factor element from the bovine β-casein gene promoter, 5′-[…]) (SEQ ID NO: 2) for Stat1 and Stat5 binding. Except where indicated, nuclear extracts were pre-incubated with compound for 30 min at room temperature prior to incubation with the radiolabeled probe for 30 min at 30° C. before subjecting to EMSA analysis. Where appropriate, bands corresponding to Stat3:DNA complexes were scanned and quantified for each concentration of compound using ImageJ and plotted as percent of control (DMSO) against concentration of compound, from which the IC50 values were derived.
Aryl sulfonamido azetidine compounds were investigated for their inhibitory effects of the active analogs on intracellular Stat3 signaling. […] Nuclear extracts are prepared and subjected to EMSA analysis for Stat3 DNA-binding activity. […] Stat3 DNA-binding activity in MDA-MB-231 cells, is inhibited by the compounds following treatment as measured periodically up to 72 h.

[3] = test system: subcutaneous MDA-MB-231 tumor xenografts; experiment: Growth of subcutaneous MDA-MB-231 tumor xenografts; format: in vivo, mouse; conditions: 10 mg/kg every other day, intraperitoneally, vs vehicle control
Method: (§1) (5 mice per group). The subjects were administered intraperitoneally.

[4] = test system: MDA-MB-231; experiment: Cell growth by trypan blue exclusion/phase-contrast microscopy; format: cell-based; conditions: Homo sapiens, MDA-MB-231, read-out: IC50, MDA-MB-231 cell growth
Method: FIGS. 1A-1N. Show the effects of aryl sulfonamido azetidine compounds on cell viability in vitro relative to control (untreated cells). […] Cells in 6-well plates were treated once with 0.05% DMSO, or at the indicated concentrations (0.5, 1, 2, 3, 4, 5 and 10 μM if not otherwise so indicated) of the test compounds. […] The compound names are correlated with the structures provided in the Examples in Table 1.
Cell proliferation and viability assay. […] Cells in 6-well or 96-well plates were treated with or without compounds for the indicated concentrations and time, and subjected to MTT assay or CyQuant cell proliferation assay (Invitrogen/ThermoFisher Scientific), or harvested and the viable cells were counted by trypan blue exclusion with phase-contrast microscopy.
Constitutive Stat3 activity promotes tumor cell growth and proliferation and survival (Darnell J E (2005) Nat Med. 11:595-6; Bowman T, et al., (2000) Oncogene 19:2474-2488). An aryl sulfonamido azetidine compound, H182, was tested against tumor cells harboring constitutively-active Stat3.

[5] = Body weight of treated mice in the xenograft study; format: in vivo, mouse; conditions: 10 mg/kg every other day, intraperitoneally, treated vs untreated mice
Method: as §1

Stat3, sequence (P42227 2-770): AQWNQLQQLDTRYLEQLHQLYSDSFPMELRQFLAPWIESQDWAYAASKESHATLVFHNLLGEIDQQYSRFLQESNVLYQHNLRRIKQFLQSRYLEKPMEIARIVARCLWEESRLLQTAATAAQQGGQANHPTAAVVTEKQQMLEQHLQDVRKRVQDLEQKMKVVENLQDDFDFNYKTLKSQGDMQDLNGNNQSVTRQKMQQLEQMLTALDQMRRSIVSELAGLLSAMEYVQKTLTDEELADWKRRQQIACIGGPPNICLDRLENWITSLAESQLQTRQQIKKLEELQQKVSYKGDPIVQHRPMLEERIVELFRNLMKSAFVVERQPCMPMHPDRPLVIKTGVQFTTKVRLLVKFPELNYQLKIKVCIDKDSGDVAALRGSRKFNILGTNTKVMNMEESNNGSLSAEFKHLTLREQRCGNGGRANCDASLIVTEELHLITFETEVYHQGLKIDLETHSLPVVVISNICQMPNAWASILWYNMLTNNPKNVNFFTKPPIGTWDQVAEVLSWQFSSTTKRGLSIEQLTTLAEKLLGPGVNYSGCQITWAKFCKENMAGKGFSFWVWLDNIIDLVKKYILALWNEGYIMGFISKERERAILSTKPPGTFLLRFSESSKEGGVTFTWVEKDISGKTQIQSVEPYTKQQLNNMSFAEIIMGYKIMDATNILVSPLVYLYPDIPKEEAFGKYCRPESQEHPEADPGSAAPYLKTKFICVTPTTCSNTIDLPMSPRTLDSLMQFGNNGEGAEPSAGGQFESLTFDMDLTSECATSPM

IC50 [1] [µM]	Structure (SMILES)	Stat3 DNA-binding activity in MDA-MB-231 cells [2]	other results
0.866 ± 0.085	Cn1ccc2cc(N(Cc3ccc(C4CCCCC4)cn3)C(=O)[C@H]3CCN3S(=O)(=O)c3c(F)c(F)c(F)c(F)c3F)ccc2c1=O [Example 22, (R)—N-((5-cyclohexylpyridin-2-yl)methyl)-N-(2-methyl-1-oxo-1,2-dihydroisoquinolin-6-yl)-1-((perfluorophenyl)sulfonyl)azetidine-2-carboxamide]		
1.15 ± 0.04	Cn1cnc2cc(N(Cc3ccc(C4CCCCC4)cn3)C(=O)[C@H]3CCN3S(=O)(=O)c3c(F)c(F)c(F)c(F)c3F)ccc2c1=O [Example 23, (R)—N-((5-cyclohexylpyridin-2-yl)methyl)-N-(3-methyl-4-oxo-3,4-dihydroquinazolin-7-yl)-1-((perfluorophenyl)sulfonyl)azetidine-2-carboxamide]		
0.788 ± 0.039	O=C([C@H]1CCN1S(=O)(=O)c1c(F)c(F)c(F)c(F)c1F)N(Cc1ccc(C2CCCCC2)cn1)c1ccc2c(=O)[nH]ccc2c1 [Example 25, (R)—N-((5-cyclohexylpyridin-2-yl)methyl)-N-(1-oxo-1,2-dihydroisoquinolin-6-yl)-1-((perfluorophenyl)sulfonyl)azetidine-2-carboxamide]		
	O=C([C@H]1CCN1S(=O)(=O)c1c(F)c(F)c(F)c(F)c1F)N(Cc1ccc(C2CCCCC2)nc1)c1ccc2c(=O)[nH]ncc2c1 [Example H172]	inhibited	
	O=C([C@H]1CCN1S(=O)(=O)c1c(F)c(F)c(F)c(F)c1F)N(Cc1ccc(C2CCCCC2)cn1)c1ccc2c(=O)[nH]cnc2c1 [Example H182]	inhibited	tumor growth [3]: reduce the tumor growth rate; IC50 [4]: < 10 µM; body weight [5]: maintaining subject body weight

Source: patent US20220289720A1, “ARYL SULFONAMIDES AS SMALL MOLECULE STAT3 INHIBITORS” (UNIVERSITY OF HAWAII, priority 2019, published 2022)
